Results published in patent publication US5021595A, “Transition metal catalyst composition for olefin polymerization” (Exxon Chemical Patents Inc., priority 1990, dated 1991).
Where two headings read alike, the source gives them in different places. Blank lines part the entries; values can stand above or below the compound they belong to.

Key:
[1] = Ethylene/propylene copolymerization in continuous flow stirred tank reactor (catalyst productivity); details: CFSTR, residence time 11 minutes
Method: A series of copolymers based on ethylene and propylene monomers were prepared in a continuous flow stirred tank reactor using the vanadium
The polymerization results as set forth in Table 1 are expressed as polymer made in the reactor in gms per hour.

[2] = Ethylene/propylene copolymerization in tubular reactor (polymerization rate); details: for Effectiveness in polymerizing ethylene/propylene compared to VCl4 (in words): tubular reactor process; for Polymerization Rate (polymer made in the reactor): tubular reactor, 15° C. at the initial zone, adiabatic, premix 8 sec at 10° C. (Example 12) or -10° C. (all others)
Source text: The polymerization results are shown in Table II and are expressed/as polymer made in the reactor in gms per hour.

[3] = Conversion of vanadium component into active catalyst (tubular reactor, premixing); details: premixing residence time 8 seconds, temperature varied to maximize conversion
Method: The vanadium component attains a maximum conversion to the active catalyst under certain premixing conditions determined by the concentrations of the vanadium and aluminum components and the residence time in the premixing zone and the reaction temperature. The experiment was conducted with identical concentrations of vanadium compound and the same molar ratio of aluminum to vanadium. The premixing experiment was run for the residence time of 8 seconds and the reaction temperature was varied to maximize the conversion of the vanadium component into the active catalyst.

[4] = Preparation of polyethylene (batch ethylene polymerization); details: 1 mmole catalyst, 5 mmoles ethyl aluminum sesquichloride, room temperature, 0.5 hrs
Method: In a 1.5 liter reaction vessel was introduced 800 ml of hexane. This was maintained at room temperature and ethylene was slowly bubbled in at the rate of 34 gms/hour. When the solution was saturated, 5 mmoles of Ethyl aluminum sesquichloride was added as a solution in hexane followed by a solution of 1 mmole of the transition metal catalyst compound dissolved in toluene. […] The polymerization was maintained for 0.5 hrs with constant monomer addition. At the end of the polymerization period, the polymerization was terminated by the addition of 5 ml of isopropanol and the polymer was recovered by filtration and dried to constant weight.

[5] = Copolymerization of norbornene type monomers with ethylene/propylene in CFSTR; details: 30° C.
Method: Polymerization experiments were conducted in a continuous flow stirred tank reactor process wherein norbornene type monomers such as norbornene and 5-ethylidene-2-norbornene (ENB) are copolymerized employing the invention catalysts. The polymerization was conducted under the following conditions:
Ethyl aluminum sesquichloride:
Tetraethoxysilane at .208 gms/hr

[6] = Catalyst lifetime in isothermal tubular reactor polymerization, first order decay; details: isothermal 40° C.
[7] = tubular reactor
[8] = tubular reactor systems, pre-mixing and aging, in some cases; cited from earlier work
[9] = Condition A: no norbornene monomer
[10] = Condition B: Norbornene at 10.3 gms/hr
[11] = Condition C: Norbornene at 20.6 gms/hr
[12] = Condition D: ENB at 12.4 gms/hr + Tetraethoxysilane at .208 gms/hr

Compound: CC(=O)C=C(C)[O-].CCCCCC(=O)[O-].[Cl-].[V+3] [Catalyst Code 3, Hexanoate (2,4-Pentanedionate) mono chloro vanadium (+3)]
Catalyst Productivity at Specified Temperature (polymer made in the reactor) ([1]; 30° C.): 87 gms per hour | Catalyst Productivity at Specified Temperature (polymer made in the reactor) ([1]; 45° C.): 64 gms per hour | Catalyst Productivity at Specified Temperature (polymer made in the reactor) ([1]; 60° C.): 51 gms per hour | Effectiveness in polymerizing ethylene/propylene compared to VCl4 (in words) [2]: significantly more effective than VCL4 in polymerizing ethylene/propylene monomers | Polymerization Rate (polymer made in the reactor) [2]: 891 gms per hour | Catalyst Conv % (percentage of vanadium converted to the active catalyst at maximum) [3]: 75% | Wt of PE [4]: 15.0 GMS | Polymerization rate [5, 9]: 165 gms/hr | Polymerization rate [5, 10]: 178 gms/hr | Polymerization rate [5, 11]: 164 gms/hr | Polymerization rate [5, 12]: 165 gms/hr | Half-Life at 40° C. [6]: 13.8 s

Compound: Bis hexanoate mono chloro vanadium (+3) [Catalyst Code 1]
Catalyst Productivity at Specified Temperature (polymer made in the reactor) ([1]; 30° C.): 95 gms per hour | Catalyst Productivity at Specified Temperature (polymer made in the reactor) ([1]; 45° C.): 68 gms per hour | Catalyst Productivity at Specified Temperature (polymer made in the reactor) ([1]; 60° C.): 58 gms per hour | Effectiveness in polymerizing ethylene/propylene compared to VCl4 (in words) [2]: significantly more effective than VCL4 in polymerizing ethylene/propylene monomers | Polymerization Rate (polymer made in the reactor) [2]: 832 gms per hour | Catalyst Conv % (percentage of vanadium converted to the active catalyst at maximum) [3]: 67% | Wt of PE [4]: 13.9 GMS | Polymerization rate [5, 9]: 171 gms/hr | Polymerization rate [5, 10]: 171 gms/hr | Polymerization rate [5, 11]: 168 gms/hr | Polymerization rate [5, 12]: 160 gms/hr | Half-Life at 40° C. [6]: 19.8 s

Half-Life at 40° C. [7]: 11.6 s
Compound: CC(=O)C=C(C)[O][V]([Cl])[O]C(C)=CC(C)=O [Catalyst Code 2, Bis (2,4-pentanedionate) mono chloro vanadium (+3)]
Catalyst Productivity at Specified Temperature (polymer made in the reactor) ([1]; 30° C.): 92 gms per hour | Catalyst Productivity at Specified Temperature (polymer made in the reactor) ([1]; 45° C.): 64 gms per hour | Catalyst Productivity at Specified Temperature (polymer made in the reactor) ([1]; 60° C.): 51 gms per hour | Effectiveness in polymerizing ethylene/propylene compared to VCl4 (in words) [2]: significantly more effective than VCL4 in polymerizing ethylene/propylene monomers | Polymerization Rate (polymer made in the reactor) [2]: 878 gms per hour | Catalyst Conv % (percentage of vanadium converted to the active catalyst at maximum) [3]: 72% | Wt of PE [4]: 14.3 GMS | Polymerization rate [5, 9]: 169 gms/hr | Polymerization rate [5, 10]: 164 gms/hr | Polymerization rate [5, 11]: 159 gms/hr | Polymerization rate [5, 12]: 152 gms/hr

Compound: Bis hexanoate mono chloro titanium [Catalyst Code 5]
Wt of PE [4]: 13.5 GMS

Compound: Tetra chloro vanadium (+4) [Catalyst Code 0, reference compound]
Deactivation of catalyst formed, based on the moles of the initial vanadium compound added [8]: up to 55 mole percent | Half-Life at 40° C. [6]: 2.5 s

Compound: Hexanoate Salicaldehyde mono chloro vanadium (+3) [Catalyst Code 4]
Catalyst Productivity at Specified Temperature (polymer made in the reactor) ([1]; 30° C.): 90 gms per hour | Catalyst Productivity at Specified Temperature (polymer made in the reactor) ([1]; 45° C.): 73 gms per hour | Catalyst Productivity at Specified Temperature (polymer made in the reactor) ([1]; 60° C.): 56 gms per hour | Wt of PE [4]: 15.0 GMS | Half-Life at 40° C. [6]: 10.0 s
